Reference: ChEMBL document CHEMBL5543112, “Discovery of CBPD-268 as an Exceptionally Potent and Orally Efficacious CBP/p300 PROTAC Degrader Capable of Achieving Tumor Regression” (J Med Chem, 2024)

Experiments:
Cytochrome P450 2B6 = target: T1, Cytochrome P450 2B6 (Homo sapiens, UniProt P20813); experiment: Inhibition of CYP2B6 (unknown origin) preincubated with compound for 5 mins followed by NADPH addition and measured after 10 mins by LC-MS/MS analysis; type: ADME
T1 sequence (P20813 whole entry): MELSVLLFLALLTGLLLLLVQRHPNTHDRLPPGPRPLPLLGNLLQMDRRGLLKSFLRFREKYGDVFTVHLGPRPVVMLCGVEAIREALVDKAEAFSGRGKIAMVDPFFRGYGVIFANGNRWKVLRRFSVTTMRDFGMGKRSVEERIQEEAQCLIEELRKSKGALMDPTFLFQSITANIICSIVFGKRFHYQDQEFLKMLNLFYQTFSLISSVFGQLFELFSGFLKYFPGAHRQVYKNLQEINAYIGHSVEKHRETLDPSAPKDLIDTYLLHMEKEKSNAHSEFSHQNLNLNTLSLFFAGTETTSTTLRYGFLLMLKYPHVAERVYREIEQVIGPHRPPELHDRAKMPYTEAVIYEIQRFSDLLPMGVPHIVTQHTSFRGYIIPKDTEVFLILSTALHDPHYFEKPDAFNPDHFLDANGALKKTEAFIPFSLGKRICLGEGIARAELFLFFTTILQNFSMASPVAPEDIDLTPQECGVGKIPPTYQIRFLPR

[1] = AUC in ICR mouse at 3 mg/kg, po measured upto 24 hrs by LC/MS-MS analysis; type: ADME, organism-based; conditions: in vivo
[2] = Drug distribution in SCID mouse tumor at 0.3 mg/kg, po measured at 1 hr by LC-MS/MS analysis; type: ADME, organism-based, Neoplasm; conditions: read-out: Ct
[3] = Toxicity in immune-competent Sprague-Dawley rat assessed as change in platelet count at 1 to 10 mg/kg, po administered twice a week for 5 weeks; type: organism-based; conditions: in vivo, 840 h, dose 1-10 mg/kg
[4] = Drug distribution in SCID mouse spleen at 3 mg/kg, po measured at 1 hr by LC-MS/MS analysis; type: ADME, organism-based; conditions: read-out: Ct
[5] = Toxicity in immune-competent Sprague-Dawley rat assessed as change in red blood cells count at 1 to 10 mg/kg, po administered twice a week for 5 weeks; type: organism-based; conditions: in vivo, 840 h, dose 1-10 mg/kg
[6] = Toxicity in immune-competent Sprague-Dawley rat assessed as change in total bilirubin level at 1 to 10 mg/kg, po administered twice a week for 5 weeks; type: organism-based; conditions: in vivo, 840 h, dose 1-10 mg/kg
[7] = Toxicity in immune-competent Sprague-Dawley rat assessed as change in neutrophil at 1 to 10 mg/kg, po administered twice a week for 5 weeks; type: organism-based; conditions: in vivo, 840 h, dose 1-10 mg/kg
[8] = Chemical stability of the compound assessed as parent compound remaining measured at 3 hrs; type: physicochemical
[9] = Drug distribution in SCID mouse liver at 1 mg/kg, po measured at 24 hrs by LC-MS/MS analysis; type: ADME, organism-based; conditions: read-out: Ct
[10] = Drug distribution in SCID mouse spleen at 3 mg/kg, po measured at 6 hrs by LC-MS/MS analysis; type: ADME, organism-based; conditions: read-out: Ct
[11] = Drug distribution in SCID mouse plasma at 0.3 mg/kg, po measured at 1 hr by LC-MS/MS analysis; type: ADME, organism-based
[12] = Drug distribution in SCID mouse liver at 3 mg/kg, po measured at 1 hr by LC-MS/MS analysis; type: ADME, organism-based; conditions: read-out: Ct
[13] = Drug concentration in SCID mouse plasma at 1 mg/kg, po measured at 6 hrs by LC-MS/MS analysis; type: ADME, organism-based
[14] = Drug distribution in Sprague-Dawley rat spleen at 3 mg/kg, po measured at 6 hrs by LC-MS/MS analysis; type: ADME, organism-based; conditions: read-out: Ct
[15] = Drug distribution in Sprague-Dawley rat liver at 10 mg/kg, po measured at 6 hrs by LC-MS/MS analysis; type: ADME, organism-based; conditions: read-out: Ct
[16] = Drug distribution in SCID mouse liver at 0.3 mg/kg, po measured at 6 hrs by LC-MS/MS analysis; type: ADME, organism-based; conditions: read-out: Ct
[17] = Drug distribution in Sprague-Dawley rat kidney at 3 mg/kg, po measured at 6 hrs by LC-MS/MS analysis; type: ADME, organism-based; conditions: read-out: Ct
[18] = Drug distribution in Sprague-Dawley rat plasma at 10 mg/kg, po measured at 24 hrs by LC-MS/MS analysis; type: ADME, organism-based
[19] = Toxicity in immune-competent Sprague-Dawley rat assessed as change in monocyte at 1 to 10 mg/kg, po administered twice a week for 5 weeks; type: organism-based; conditions: in vivo, 840 h, dose 1-10 mg/kg
[20] = Drug distribution in SCID mouse spleen at 1 mg/kg, po measured at 1 hr by LC-MS/MS analysis; type: ADME, organism-based; conditions: read-out: Ct
[21] = Drug distribution in SCID mouse tumor at 3 mg/kg, po measured at 1 hr by LC-MS/MS analysis; type: ADME, organism-based, Neoplasm; conditions: read-out: Ct
[22] = Plasma protein binding in dog by LC-MS analysis; type: ADME, cell-free, Canis lupus familiaris; conditions: read-out: PPB (converted)
[23] = Drug distribution in Sprague-Dawley rat kidney at 3 mg/kg, po measured at 1 hr by LC-MS/MS analysis; type: ADME, organism-based; conditions: read-out: Ct
[24] = Toxicity in SCID mouse xenografted with human VCaP cells assessed as loss of body weight at 1 to 3 mg/kg, po administered daily 5 times a week for 4 weeks; type: organism-based; conditions: in vivo, 672 h, dose 1-3 mg/kg
[25] = Drug distribution in Sprague-Dawley rat kidney at 10 mg/kg, po measured at 6 hrs by LC-MS/MS analysis; type: ADME, organism-based; conditions: read-out: Ct
[26] = Metabolic stability in human plasma assessed as half life measured upto 120 mins by LC-MS/MS analysis; type: ADME, cell-free
[27] = target: Protein cereblon/Histone lysine acetyltransferase CREBBP (Rattus norvegicus, UniProt Q56AP7+Q6JHU9); experiment: PROTAC activity at CBP/CRBN in rat RG2 cells assessed as induction of CBP degradation; type: cell-based
[28] = Metabolic stability in monkey plasma assessed as half life measured upto 120 mins by LC-MS/MS analysis; type: ADME, cell-free, Macaca mulatta; conditions: rhesus monkey
[29] = Drug distribution in Sprague-Dawley rat spleen at 10 mg/kg, po measured at 1 hr by LC-MS/MS analysis; type: ADME, organism-based; conditions: read-out: Ct
[30] = Drug distribution in SCID mouse tumor at 3 mg/kg, po measured at 24 hrs by LC-MS/MS analysis; type: ADME, organism-based, Neoplasm; conditions: read-out: Ct
[31] = Clearance in Sprague-Dawley rat at 1 mg/kg, iv measured upto 24 hrs by LC/MS-MS analysis; type: ADME, organism-based; conditions: in vivo
Cytochrome P450 2D6 = Cytochrome P450 2D6 (Homo sapiens, UniProt P10635); experiment: Inhibition of CYP2D6 (unknown origin) preincubated with compound for 5 mins followed by NADPH addition and measured after 20 mins by LC-MS/MS analysis; type: ADME
[32] = Half life in ICR mouse at 3 mg/kg, po measured upto 24 hrs by LC/MS-MS analysis; type: ADME, organism-based; conditions: in vivo
[33] = Volume of distribution at steady state in Sprague-Dawley rat at 1 mg/kg, iv measured upto 24 hrs by LC/MS-MS analysis; type: ADME, organism-based; conditions: in vivo, read-out: Vdss
[34] = Toxicity in female BALB/c mouse assessed as body weight loss at 30 mg/kg, po administered twice a week for 5 to 6 weeks; type: organism-based; conditions: in vivo, time 5-6 weeks
[35] = Drug concentration in SCID mouse tumor at 1 mg/kg, po measured at 24 hrs by LC-MS/MS analysis; type: ADME, organism-based, Neoplasm; conditions: read-out: Ct

Sequence of Cytochrome P450 2D6 (P10635 whole entry): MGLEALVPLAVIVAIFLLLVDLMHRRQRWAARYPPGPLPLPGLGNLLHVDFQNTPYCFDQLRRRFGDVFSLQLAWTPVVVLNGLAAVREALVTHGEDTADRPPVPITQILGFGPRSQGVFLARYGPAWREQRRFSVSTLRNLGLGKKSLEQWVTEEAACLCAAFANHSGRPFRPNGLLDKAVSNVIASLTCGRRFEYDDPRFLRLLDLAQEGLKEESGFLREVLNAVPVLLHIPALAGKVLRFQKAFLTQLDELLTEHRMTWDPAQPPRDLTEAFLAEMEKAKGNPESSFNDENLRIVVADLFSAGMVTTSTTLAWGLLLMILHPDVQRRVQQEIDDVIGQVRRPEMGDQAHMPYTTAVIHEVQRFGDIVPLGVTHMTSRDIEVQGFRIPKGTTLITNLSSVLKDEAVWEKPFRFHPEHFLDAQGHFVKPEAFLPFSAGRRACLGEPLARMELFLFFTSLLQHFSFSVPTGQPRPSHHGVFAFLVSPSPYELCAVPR
Sequence of Protein cereblon/Histone lysine acetyltransferase CREBBP (Q56AP7 whole entry): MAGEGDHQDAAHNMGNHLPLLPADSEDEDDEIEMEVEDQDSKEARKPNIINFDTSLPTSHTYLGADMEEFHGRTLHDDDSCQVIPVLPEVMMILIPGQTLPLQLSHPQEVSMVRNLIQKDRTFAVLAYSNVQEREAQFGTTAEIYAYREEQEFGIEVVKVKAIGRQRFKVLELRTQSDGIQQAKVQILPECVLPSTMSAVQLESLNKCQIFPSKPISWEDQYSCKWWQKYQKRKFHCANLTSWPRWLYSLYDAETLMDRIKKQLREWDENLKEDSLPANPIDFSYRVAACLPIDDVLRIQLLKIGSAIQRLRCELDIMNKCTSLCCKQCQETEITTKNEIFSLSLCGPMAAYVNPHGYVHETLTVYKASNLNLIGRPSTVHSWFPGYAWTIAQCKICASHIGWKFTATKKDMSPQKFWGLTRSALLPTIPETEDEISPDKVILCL
Sequence of Protein cereblon/Histone lysine acetyltransferase CREBBP (Q6JHU9 whole entry): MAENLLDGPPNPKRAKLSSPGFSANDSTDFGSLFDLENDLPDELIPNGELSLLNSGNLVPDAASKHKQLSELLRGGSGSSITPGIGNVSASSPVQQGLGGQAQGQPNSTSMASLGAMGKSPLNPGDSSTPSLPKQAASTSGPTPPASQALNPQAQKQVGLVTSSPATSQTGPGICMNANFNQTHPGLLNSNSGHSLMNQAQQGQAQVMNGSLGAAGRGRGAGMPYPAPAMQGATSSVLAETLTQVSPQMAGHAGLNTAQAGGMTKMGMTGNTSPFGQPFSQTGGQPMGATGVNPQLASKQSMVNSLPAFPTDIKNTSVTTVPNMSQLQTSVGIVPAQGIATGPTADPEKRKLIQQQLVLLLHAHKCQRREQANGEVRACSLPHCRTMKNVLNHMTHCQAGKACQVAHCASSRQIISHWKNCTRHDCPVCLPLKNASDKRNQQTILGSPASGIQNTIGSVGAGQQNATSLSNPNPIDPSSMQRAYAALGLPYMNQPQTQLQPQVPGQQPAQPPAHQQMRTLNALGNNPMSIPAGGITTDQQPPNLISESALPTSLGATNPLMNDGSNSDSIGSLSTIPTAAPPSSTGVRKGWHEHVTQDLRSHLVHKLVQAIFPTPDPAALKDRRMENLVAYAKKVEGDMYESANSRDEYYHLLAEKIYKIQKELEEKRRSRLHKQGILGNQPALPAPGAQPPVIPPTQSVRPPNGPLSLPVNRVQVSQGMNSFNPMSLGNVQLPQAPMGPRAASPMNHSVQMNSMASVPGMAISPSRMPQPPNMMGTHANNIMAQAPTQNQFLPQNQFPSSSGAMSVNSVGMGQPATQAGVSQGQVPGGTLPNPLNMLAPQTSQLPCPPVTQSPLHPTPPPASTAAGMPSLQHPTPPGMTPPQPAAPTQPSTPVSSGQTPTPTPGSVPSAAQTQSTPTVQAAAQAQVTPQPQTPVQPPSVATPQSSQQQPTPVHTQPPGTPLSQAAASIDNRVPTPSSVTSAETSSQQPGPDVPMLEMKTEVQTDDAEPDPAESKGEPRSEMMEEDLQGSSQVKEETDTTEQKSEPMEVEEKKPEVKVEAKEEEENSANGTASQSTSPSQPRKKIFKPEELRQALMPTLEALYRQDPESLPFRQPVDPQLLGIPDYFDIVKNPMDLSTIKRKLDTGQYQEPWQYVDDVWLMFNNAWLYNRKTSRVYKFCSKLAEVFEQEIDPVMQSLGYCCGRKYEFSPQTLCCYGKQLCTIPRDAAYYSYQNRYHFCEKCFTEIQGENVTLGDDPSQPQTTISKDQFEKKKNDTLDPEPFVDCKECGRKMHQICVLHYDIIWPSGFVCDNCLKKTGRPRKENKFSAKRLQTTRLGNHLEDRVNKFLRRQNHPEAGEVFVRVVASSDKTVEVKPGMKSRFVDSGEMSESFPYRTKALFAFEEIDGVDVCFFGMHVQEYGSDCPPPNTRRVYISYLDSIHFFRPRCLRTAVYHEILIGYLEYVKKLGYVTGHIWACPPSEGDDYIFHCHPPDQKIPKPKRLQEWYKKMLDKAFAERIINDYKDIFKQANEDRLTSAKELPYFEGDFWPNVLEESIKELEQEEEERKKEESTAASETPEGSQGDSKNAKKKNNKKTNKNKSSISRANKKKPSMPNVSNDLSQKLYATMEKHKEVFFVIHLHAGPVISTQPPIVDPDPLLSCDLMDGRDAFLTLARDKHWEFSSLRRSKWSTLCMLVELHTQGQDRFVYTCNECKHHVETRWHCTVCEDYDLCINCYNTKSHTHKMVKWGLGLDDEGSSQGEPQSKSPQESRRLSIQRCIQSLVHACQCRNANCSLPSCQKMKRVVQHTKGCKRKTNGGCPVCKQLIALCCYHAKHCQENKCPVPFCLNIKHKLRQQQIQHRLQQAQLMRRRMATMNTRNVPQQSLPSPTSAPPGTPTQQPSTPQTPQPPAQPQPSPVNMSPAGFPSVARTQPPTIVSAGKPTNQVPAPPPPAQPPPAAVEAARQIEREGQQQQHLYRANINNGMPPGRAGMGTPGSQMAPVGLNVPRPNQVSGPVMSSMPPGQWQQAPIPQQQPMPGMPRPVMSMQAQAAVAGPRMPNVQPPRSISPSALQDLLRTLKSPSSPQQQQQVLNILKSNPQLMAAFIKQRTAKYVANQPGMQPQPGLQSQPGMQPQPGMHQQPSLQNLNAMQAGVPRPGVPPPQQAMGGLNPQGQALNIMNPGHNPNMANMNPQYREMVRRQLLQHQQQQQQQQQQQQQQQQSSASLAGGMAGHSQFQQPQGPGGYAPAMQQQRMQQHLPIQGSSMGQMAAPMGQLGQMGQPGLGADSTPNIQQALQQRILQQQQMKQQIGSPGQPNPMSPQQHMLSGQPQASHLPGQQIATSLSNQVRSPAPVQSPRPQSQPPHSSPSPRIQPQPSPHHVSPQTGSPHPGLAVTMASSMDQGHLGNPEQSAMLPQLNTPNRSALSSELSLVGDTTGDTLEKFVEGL

CC(=O)N1CCc2c(c(N3CCCc4cc(-c5cnn(C)c5)c(C(F)F)cc43)nn2[C@H]2CC[C@H](CN3Cc4cc5c(cc4C3)C(=O)N(C3CCC(=O)NC3=O)C5=O)CC2)C1 (some centres not stated)
IC50 (Cytochrome P450 2B6): > 10 µM | AUC at 24 h [1]: 4190 ng·h/mL | concentration at 1 h [2]: 27.8 ng/g | Activity [3]: Non-Toxic | concentration at 1 h [4]: 937 ng/mL | Activity [5]: Non-Toxic | Activity [6]: Non-Toxic | Activity [7]: Non-Toxic | Stability [8]: Stable | concentration at 24 h [9]: 13.7 ng/mL | concentration at 6 h [10]: 738 ng/mL | concentration at 1 h [11]: 35.2 ng/mL | concentration at 1 h [12]: 3300 ng/mL | concentration at 6 h [13]: 14.1 ng/mL | concentration at 6 h [14]: 112 ng/g | concentration at 6 h [15]: 541 ng/g | concentration at 6 h [16]: 86.8 ng/mL | concentration at 6 h [17]: 59.2 ng/g | concentration at 24 h [18]: 1.3 ng/mL | Activity [19]: Non-Toxic | concentration at 1 h [20]: 146 ng/mL | concentration at 1 h [21]: 249 ng/g | fraction unbound [22]: 0.009 | concentration at 1 h [23]: 514 ng/g | Activity [24]: > 8% | concentration at 6 h [25]: 224 ng/g | half-life [26]: 1.18 h | DC50 [27]: 0.0001 µM | half-life [28]: > 2 h | concentration at 1 h [29]: 1990 ng/g | concentration at 24 h [30]: 12 ng/mL | clearance [31]: 34.6 mL/min/kg | IC50 (Cytochrome P450 2D6): > 10 µM | half-life [32]: 3.1 h | Vd [33]: 4.9 L/kg | Activity [34]: < 5% | concentration at 24 h [35]: 6.3 ng/g
